In PMC9643456, “Matching amino acids membrane preference profile to improve activity of antimicrobial peptides” (Communications Biology, 2022):
In brackets after ≈: the same amount, converted by molar mass. Where two headings read alike, the source gives them in different places. Square brackets hold non-standard residues; d marks the D form. Peptide text beside a SMILES is read from it.

What was measured:
A. baumannii strains = test: microbe, parasite or virus in culture
Method: (§1) Twenty-six A. baumannii strains were clinically isolated and gifted to us by the Kyungpook National University School of Medicine. One A. baumannii strain (ATCC 17978) was purchased and gifted to us by Kyungpook National University School of Medicine. One A. baumannii strain and 10 K. pneumoniae strains (NCCP) were purchased from the National Culture Collection for Pathogens.
(§2) To assess antimicrobial activity, the MIC50 and MIC90 were measured using broth microdilution following CLSI guidelines. […] Each experiment was performed in triplicate. Meropenem (Sigma, Darmstadt, Germany) and colistin were used as control antibiotics. Cation-adjusted Mueller–Hinton broth (CAMHB) (Becton, Dickinson and Company, Franklin Lakes, USA) with supplied calcium (50 mg/L) and magnesium (10 mg/L) was used for the CLSI-test condition. Bacteria in midlog phase and peptides were separately diluted in CAMHB. The bacteria and peptide solutions were then mixed in 96-well polyethylene plates (SPL, Gyeonggi-do, Korea) and incubated for 18 h at 37 °C. The final concentration for bacteria was 5 × 10^5 CFU/ml. […] The MIC was defined to be the lowest concentration of peptide without visible turbidity by comparing with control antibiotics with the unaided eye. […] Each experiment was performed in triplicate. MICs in albumin and acetic acid solutions were measured using the same protocol but with 0.2% bovine serum albumin (Bovogen, Keilor, Australia), 0.01% acetic acid (Merck, New Jersey, USA), and CAMHB with both calcium and magnesium. In addition, MICs used in the antibiotic resistance acquisition test, the outer–inner membrane permeation test, and the transmembrane potential test and for FE-SEM were individually determined. The final bacterial concentrations used were as follows: for resistance acquisition, optical density (OD) 0.01; for outer–inner membrane permeability assays (LB), OD 0.1; for the transmembrane potential test, 1 × 10^8 CFU/ml (OD 0.171); […]. Inhibitory activity unidentifiable by direct observation was determined by counting the CFUs. Each experiment was performed at least twice.

K. pneumonia strains = test: microbe, parasite or virus in culture; settings: Klebsiella pneumoniae
Method: as §1, §2

human red blood cells = test: Hemolytic activity; format: cell-based; settings: red cells of human, 18 h
Summary of the method: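 Haemolysis was read as A540 of cleared supernatants after 18 h at 37 °C, with 0% and 100% lysis set by peptide-free PBS and 1% Triton X-100 and melittin as positive control. Human RBCs were at 4% final, peptide serially diluted 100–0.78 μM; three replicates.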

[1] = Maximum soluble concentration / turbidity; format: physicochemical; settings: distilled water
Method: Supplementary Methods Bacteria preparation, Antimicrobial peptides preparation, Minimal-inhibitory-concentration measurements, Hemolysis-activity measurements, Tryptophan fluorescence measurements, Isothermal titration calorimetry measurements, Bacteria membrane ion permeation measurements, Outer-inner membrane permeation, Field-emission scanning electron microscopy and Antimicrobial kinetics were performed as described in Materials and Methods. Liposome (LUV) preparation. Bacterial-membrane-mimic DMPC/DMPG unilamellar vesicles (LUV) and mammalian- membrane-mimic PC/cholesterol vesicles with 100-nm diameters were prepared by extrusion. LiposoFast Liposome Factory Basic unit with stabilizer (Avestin, Ottawa, Canada) was used to extrude liposomes 50 times through a polycarbonate membrane filter (pore diameter, 100 nm; filter diameter, 0.75 inches) (Avestin). […] rac-(1-glycerol)) (sodium salt) (DMPG) (Avanti, Alabama, USA); 1,2-Dimyristoyl-sn-glycero-3-phosphocholine (DMPC) (Avanti); and cholesterol (Sigma, Darmstadt, Germany) were used. For circular dichroism, isothermal titration calorimetry, tryptophan fluorescence, and dynamic light scattering experiments, liposomes were reconstructed and resuspendedwith phosphate-buffered saline (PBS; Welgene Inc, Gyeongsangbuk-do, Korea). For calcein-permeation tests, liposomes were reconstructed with calcein solutions (80 mM, 40 mM, 30 mM, 20 mM, and 10 mM) (Sigma, Darmstadt, Germany), purified with Sephadex-G50 columns (Pharmacia biotech, Stockholm, Sweden), and resuspended with PBS. Maximum-soluble -concentration measurements. […] turbidity with PBS. The lowest concentration of peptide without visible turbidity was determined to be the maximu m soluble concentration. Each experiment was performed at least twice. Circular dichroism (CD) spectrum. DMPC/PG -liposome, PC/cholesterol -liposome, and peptide stock solutions were diluted in PBS. For circular dichroism, PBS with neither liposome nor peptides was also prepared. Liposomes and peptides were mixed to […] Samples were transferred into type J/1 cuvettes (Jasco, Tokyo, Japan). Cuvettes were placed into the J -815 circular -dichroism spectrometer (Jasco, Tokyo, Japan). Measurement parameters were as follows: wavelength, 190 -260 nm; data pitch, 0.2 nm; bandwidth, 1.00 nm; […] Each experiment was performed in triplicate. Data below 197 nm was not analyzed because o f experimental difficulties in obtaining those spectra. Each experiment was performed at least twice. Artificial membrane calcein permeation measurements. Calcein fluorescence was used to measure peptide -induced liposome permeation. Calcein solutions (10 mM, 20 mM, or 60 mM) containing PC/PG liposomes and peptides were diluted in PBS ( ×1, ×2, ×3, ×8). […] Liposome solutions (180 μl) were transferred to wells of black, clear -bottomed 96 -well plates (Costar, New York, USA). Peptide […] Liposome-containing plates and peptide -containing plates were inserted into a Flexstation 3 Multi -Mode Microplate Reader (Molecular Devices, California, USA). Peptide solutions (20 μl) were transferred and mixed with liposome solution automatical ly after 30 sec. […] Measurement parameters were as follows: excitation, 490 nm; emission, 520 nm; temperature, 37 °C. […] was transferred and mixed with the liposome -peptide solu tions automatically after 300 sec to acquire fluorescence at maximum leakage. […] Fluorescence measured between 0 -300 sec after addition of 0 μg/ml peptide was considered the baseline. Each experiment was performed at least twice. Dynamic light scattering (DLS) measurements. Dynamic light scattering was used to measure peptide -induced liposome volume changes. PC/PG -liposome stock solutions and peptides were resuspended in PBS. Liposomes and peptides were mixed to […]

MDR P. aeruginosa = test: microbe, parasite or virus in culture; settings: CLSI broth microdilution; CAMHB with 50 mg/L Ca2+, 10 mg/L Mg2+; 5 × 10^5 CFU/ml; 18 h 37 °C; no visible turbidity; triplicate; strain CCARM 2180
Summary of the method: (§3)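 CLSI broth microdilution used CAMHB supplemented with Ca (50 mg/L) and Mg (10 mg/L); runs in triplicate against meropenem/colistin controls.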

MDR E. faecalis = test: microbe, parasite or virus in culture; settings: CLSI broth microdilution; CAMHB with 50 mg/L Ca2+, 10 mg/L Mg2+; 5 × 10^5 CFU/ml; 18 h 37 °C; triplicate; strain ATCC 51575
Summary of the method: as §3

MDR A. baumannii = test: microbe, parasite or virus in culture; settings: CLSI broth microdilution; CAMHB with 50 mg/L Ca2+, 10 mg/L Mg2+; 5 × 10^5 CFU/ml; 18 h 37 °C; triplicate; strain ATCC BAA-1605
Summary of the method: as §3

MDR S. aureus = test: microbe, parasite or virus in culture; settings: CLSI broth microdilution; CAMHB with 50 mg/L Ca2+, 10 mg/L Mg2+; 5 × 10^5 CFU/ml; 18 h 37 °C; triplicate; strain KCCM 40510
Summary of the method: as §3

C[C@@H](O)[C@H]1C(=O)N2C(C(=O)O)=C(S[C@@H]3CN[C@H](C(=O)N(C)C)C3)[C@H](C)[C@H]12 [Meropenem]
MIC50 (A. baumannii strains; Acinetobacter baumannii): ≥ 20 µM
MIC90 (A. baumannii strains; Acinetobacter baumannii): ≥ 20 µM
MIC (A. baumannii strains; Acinetobacter baumannii, ATCC17978, read-out: MIC, A. baumannii ATCC 17978): < 0.31 µM
MIC (A. baumannii strains; Acinetobacter baumannii, KCCM40203, read-out: MIC, A. baumannii KCCM 40203): 5 µM (≈ 1.92 µg/mL)
MIC (A. baumannii strains; Acinetobacter baumannii, read-out: MIC, A. baumannii ATCC BBA 1605): > 20 µM
MIC (A. baumannii strains; Acinetobacter baumannii, read-out: MIC, A. baumannii Isolated strain 1): > 20 µM
MIC (A. baumannii strains; Acinetobacter baumannii, read-out: MIC, A. baumannii Isolated strain 3): > 20 µM
MIC (A. baumannii strains; Acinetobacter baumannii, read-out: MIC, A. baumannii Isolated strain 6): > 20 µM
MIC (A. baumannii strains; Acinetobacter baumannii, read-out: MIC, A. baumannii Isolated strain 10): > 20 µM
MIC (A. baumannii strains; Acinetobacter baumannii, read-out: MIC, A. baumannii Isolated strain 14): > 20 µM
MIC (A. baumannii strains; Acinetobacter baumannii, read-out: MIC, A. baumannii Isolated strain 15): < 0.31 µM
MIC (A. baumannii strains; Acinetobacter baumannii, read-out: MIC, A. baumannii Isolated strain 16): > 20 µM
MIC (A. baumannii strains; Acinetobacter baumannii, read-out: MIC, A. baumannii Isolated strain 19): > 20 µM
MIC (A. baumannii strains; Acinetobacter baumannii, read-out: MIC, A. baumannii Isolated strain 22): > 20 µM
MIC (A. baumannii strains; Acinetobacter baumannii, read-out: MIC, A. baumannii Isolated strain 39): > 20 µM
MIC (A. baumannii strains; Acinetobacter baumannii, read-out: MIC, A. baumannii Isolated strain 44): > 20 µM
MIC (A. baumannii strains; Acinetobacter baumannii, read-out: MIC, A. baumannii Isolated strain 66): > 20 µM
MIC (A. baumannii strains; Acinetobacter baumannii, read-out: MIC, A. baumannii Isolated strain 68): > 20 µM
MIC (A. baumannii strains; Acinetobacter baumannii, read-out: MIC, A. baumannii Isolated strain 69): > 20 µM
MIC (A. baumannii strains; Acinetobacter baumannii, read-out: MIC, A. baumannii Isolated strain 71): > 20 µM
MIC (A. baumannii strains; Acinetobacter baumannii, read-out: MIC, A. baumannii Isolated strain 76): > 20 µM
MIC (A. baumannii strains; Acinetobacter baumannii, read-out: MIC, A. baumannii Isolated strain 80): > 20 µM
MIC (A. baumannii strains; Acinetobacter baumannii, read-out: MIC, A. baumannii Isolated strain 82): > 20 µM
MIC (A. baumannii strains; Acinetobacter baumannii, read-out: MIC, A. baumannii Isolated strain 86): > 20 µM
MIC (A. baumannii strains; Acinetobacter baumannii, read-out: MIC, A. baumannii Isolated strain 89): > 20 µM
MIC (A. baumannii strains; Acinetobacter baumannii, read-out: MIC, A. baumannii Isolated strain 102): > 20 µM
MIC (A. baumannii strains; Acinetobacter baumannii, read-out: MIC, A. baumannii Isolated strain 127): > 20 µM
MIC (A. baumannii strains; Acinetobacter baumannii, read-out: MIC, A. baumannii Isolated strain 141): > 20 µM
MIC (A. baumannii strains; Acinetobacter baumannii, read-out: MIC, A. baumannii Isolated strain 144): > 20 µM
MIC (A. baumannii strains; Acinetobacter baumannii, read-out: MIC, A. baumannii Isolated strain 147): > 20 µM
MIC (A. baumannii strains; Acinetobacter baumannii, read-out: MIC, A. baumannii Isolated strain 152): > 20 µM
MIC (A. baumannii strains; Acinetobacter baumannii, read-out: MIC, A. baumannii NCCP 14654): > 20 µM
Number of A. baumannii strains at MIC (μM) 0.63 (A. baumannii strains; of 30 strains): 0
Number of A. baumannii strains at MIC (μM) 1.25 (A. baumannii strains; of 30 strains): 0
Number of A. baumannii strains at MIC (μM) 2.5 (A. baumannii strains; of 30 strains): 0
Number of A. baumannii strains at MIC (μM) 5 (A. baumannii strains; of 30 strains): 1
Number of A. baumannii strains at MIC (μM) 10 (A. baumannii strains; of 30 strains): 0
Number of A. baumannii strains at MIC (μM) ≤0.31 (A. baumannii strains; of 30 strains): 2
Number of A. baumannii strains at MIC (μM) ≥20 (A. baumannii strains; of 30 strains): 27
MIC (K. pneumonia strains; read-out: MIC, K. pneumonia NCCP 15782): > 20 µM
MIC (K. pneumonia strains; read-out: MIC, K. pneumonia NCCP 15864): > 20 µM
MIC (K. pneumonia strains; read-out: MIC, K. pneumonia NCCP 15866): > 20 µM
MIC (K. pneumonia strains; read-out: MIC, K. pneumonia NCCP 16052): > 20 µM
MIC (K. pneumonia strains; read-out: MIC, K. pneumonia NCCP 16124): > 20 µM
MIC (K. pneumonia strains; read-out: MIC, K. pneumonia NCCP 16125): > 20 µM
MIC (K. pneumonia strains; read-out: MIC, K. pneumonia NCCP 16128): 20 µM (≈ 7.67 µg/mL)
MIC (K. pneumonia strains; read-out: MIC, K. pneumonia NCCP 16208): > 20 µM
MIC (K. pneumonia strains; read-out: MIC, K. pneumonia NCCP 16212): > 20 µM
MIC (K. pneumonia strains; read-out: MIC, K. pneumonia NCCP 16213): > 20 µM

CC(C)C[C@H](NC(=O)[C@H](CCCNC(=N)N)NC(=O)CNC(=O)CNC(=O)[C@@H](N)CCCNC(=N)N)C(=O)N[C@H]1CSSC[C@@H](C(=O)N[C@H](C(=O)NCC(=O)N[C@@H](CCCNC(=N)N)C(N)=O)C(C)C)NC(=O)[C@H](C(C)C)NC(=O)[C@@H]2CSSC[C@H](NC(=O)[C@H](Cc3ccc(O)cc3)NC1=O)C(=O)N[C@@H](CCCNC(=N)N)C(=O)N[C@@H](CCCNC(=N)N)C(=O)N[C@@H](CCCNC(=N)N)C(=O)N[C@@H](Cc1ccccc1)C(=O)N2 [Protegrin-1, reference compound]
Hemolysis percent, 25 μM (human red blood cells): 47.83 ±6.23%
Hemolysis percent, 50 μM (human red blood cells): 56.75 ±6.02%
Hemolysis percent, 100 μM (human red blood cells): 71.66 ±12.24%
solubility [1]: < 500 µM

CC[C@@H](C)[C@@H](NC(=O)[C@@H](Cc1c[nH]c2ccccc12)NC(=O)[C@@H](CC(C)C)NC(=O)[C@H](N)CC(C)C)C(=O)NCC(=O)N[C@H](CC(C)C)C(=O)N[C@H](CCCCN)C(=O)N[C@H](CCCCN)C(=O)N[C@H](CCCCN)C(=O)N[C@H](CCCCN)C(N)=O [WCopW14] (H-[dL][dL][dW][dI]G[dL][dK][dK][dK][dK]-NH2)
Hemolysis percent, 25 μM (human red blood cells): 0.98%
Hemolysis percent, 50 μM (human red blood cells): 1.06%
Hemolysis percent, 100 μM (human red blood cells): 1.10%
Minimum inhibitory concentrations, MDR P. aeruginosa (MDR P. aeruginosa): > 20 µM
Minimum inhibitory concentrations, MDR E. faecalis (MDR E. faecalis): > 20 µM
Minimum inhibitory concentrations, MDR A. baumannii (MDR A. baumannii): > 20 µM
Minimum inhibitory concentrations, MDR S. aureus (MDR S. aureus): > 20 µM
